Assay results taken from patent publication US20260007634A1, “PHARMACEUTICAL COMPOSITIONS FOR THE TREATMENT OF ALLERGIC DISEASES” (KINKI UNIVERSITY, priority 2022, published 2026).

Key:
Type in all cases: in vivo, mouse
IL-5 = test: Serum IL-5 ELISA, cedar pollinosis mice; conditions: serum day 28, oral 10 mg/kg (dexamethasone 2 mg/kg), control 77, vehicle 708
Protocol: (§1) A 0.2 mL dose of 100 μg cedar pollen and 1 mg Alum mixture was administered to 6-week-old female Balb/c mice (Japan SLC Inc.) (day 0 of the example). Alum was used as an adjuvant. Seven days later and 14 days later, the Balb/c mice were immunized again with 0.2 mL injections of the above mixture. Starting on day 20, mice were orally treated with 10 mg/kg of norathyriol, 10 mg/kg of mangiferin 8a, 10 mg/kg of tofacitinib (JAK inhibitor), 2 mg/kg of dexamethasone (steroid) and 10 mg/kg of olopatadine (antihistamine) daily for 8 consecutive days. Starting on day 21, 500 μg cedar pollen was administered intranasally, and nose-scratching behavior was measured on day 27. Note that tofacitinib, dexamethasone, and olopatadine are currently in clinical use in cedar pollinosis and were used as control drugs in this example.
Serum was collected from day 28 mice in Examples 28 and 29, and IL-5 production was measured by enzyme-linked immunosorbent assay (ELISA). This assay was performed using a mouse IL-5 ELISA kit (R&D).

IgE antibody [1] = test: Serum IgE antibody ELISA, allergic rhinitis mice; conditions: OVA allergic rhinitis; serum day 28; oral 10 mg/kg (dexamethasone 2 mg/kg); control 58, vehicle 111
Protocol: (§2) A 0.2 mL dose of 50 μg ovalbumin (OVA) and 2 mg Alum mixture was administered to 6-week-old female Balb/c mice (Japan SLC Inc.) (day 0 of the example). Alum was used as an adjuvant. Seven days later and 14 days later, the Balb/c mice were immunized again with 0.2 mL injections of the above mixture. Starting on day 20, mice were orally treated with 10 mg/kg of norathyriol, 10 mg/kg of mangiferin 8a, 10 mg/kg of tofacitinib (JAK inhibitor), 2 mg/kg of dexamethasone (steroid) and 10 mg/kg of olopatadine (antihistamine) daily for 8 consecutive days. Starting on day 21, 400 μg OVA was administered intranasally, and nose-scratching behavior was measured on day 27. Note that tofacitinib, dexamethasone, and olopatadine are currently in clinical use in allergic rhinitis and were used as control drugs in this example.
Serum was collected from day 28 mice in Examples 6 and 7, and IgE antibody production was measured by enzyme-linked immunosorbent assay (ELISA). This assay was performed using a mouse IgE antibody ELISA kit (R&D).

[2] = system: Balb/c mice with cedar pollinosis; test: Nose scratching behavior, cedar pollinosis model mice; conditions: oral daily 8 days from day 20, 10 mg/kg (dexamethasone 2 mg/kg), measured day 27, vs vehicle group
Protocol: as §1
(§3) The group that was just immunized with cedar pollen is called the subject group, the one that received norathyriol is called the norathyriol group, the one that received mangiferin 8a is called the mangiferin 8a group, the one that received tofacitinib is called the tofacitinib group, the one that received dexamethasone is called the dexamethasone group, and the one that received olopatadine is called the olopatadine group. Each group consisted of five animals.

IL-17 = test: Serum IL-17 ELISA, food allergy mice; conditions: OVA food allergy; serum day 28; oral 10 mg/kg (dexamethasone 2 mg/kg); control 98, vehicle 875
Protocol: (§4) A 0.2 mL dose of 10 μg ovalbumin (OVA) and 1 mg Alum mixture was administered to 6-week-old female Balb/c mice (Japan SLC Inc.) (day 0 of the example). Alum was used as an adjuvant. Seven days later, the Balb/c mice were immunized again with a 0.2 mL injection of the above mixture. Starting on day 14, mice were orally treated with 10 mg/kg of norathyriol, 10 mg/kg of mangiferin 8a, 10 mg/kg of tofacitinib (JAK inhibitor), 2 mg/kg of dexamethasone (steroid) and 10 mg/kg of olopatadine (antihistamine) daily for 14 consecutive days. Starting on day 14, 10 mg OVA was administered orally every other day […], and the frequency of diarrhea was measured after the final administration on day 28. Note that tofacitinib, dexamethasone, and olopatadine are currently in clinical use in food allergy and were used as control drugs in this example.
Serum was collected from day 28 mice in Examples 21, and IL-17 production was measured by enzyme-linked immunosorbent assay (ELISA). This assay was performed using a mouse IL-17 ELISA kit (R&D).

IL-4 = test: Serum IL-4 ELISA, food allergy mice; conditions: OVA food allergy; serum day 28; oral 10 mg/kg (dexamethasone 2 mg/kg); control 210, vehicle 1154
Protocol: as §4
Serum was collected from day 28 mice in Examples 21, and IL-4 production was measured by enzyme-linked immunosorbent assay (ELISA). This assay was performed using a mouse IL-4 ELISA kit (R&D).

IgE antibody [3] = test: Serum IgE antibody ELISA, cedar pollinosis mice; conditions: serum day 28, oral 10 mg/kg (dexamethasone 2 mg/kg), control 71, vehicle 207
Protocol: as §1
Serum was collected from day 28 mice in Examples 28 and 29, and IgE antibody production was measured by enzyme-linked immunosorbent assay (ELISA). This assay was performed using a mouse IgE antibody ELISA kit (R&D).

[4] = system: Balb/c mice with ovalbumin-induced bronchial asthma; test: Cough, ovalbumin-induced bronchial asthma mice; conditions: OVA bronchial asthma; oral daily 8 days from day 20, 10 mg/kg (dexamethasone 2 mg/kg); measured day 27; vs vehicle group
Protocol: as §2, with “cough” for “nose-scratching behavior”
as §3, with “OVA” for “cedar pollen”

BAFF = test: Serum BAFF ELISA, food allergy mice; conditions: OVA food allergy; serum day 28; oral 10 mg/kg (dexamethasone 2 mg/kg); control 134, vehicle 845
Protocol: as §4
Serum was collected from day 28 mice in Examples 21, and BAFF production was measured by enzyme-linked immunosorbent assay (ELISA). This assay was performed using a mouse BAFF ELISA kit (R&D).

Structure (SMILES) | amount of IL-5 (IL-5) | amount of IgE antibody (IgE antibody [1]) | number of nose scratches [2] | amount of IL-17 (IL-17) | amount of IL-4 (IL-4) | amount of IgE antibody (IgE antibody [3]) | number of coughs [4] | amount of BAFF (BAFF)
O=c1c2cc(O)c(O)cc2oc2cc(O)cc(O)c12 [norathyriol, 1,3,6,7-tetrahydroxyxanthone] | 307 pg/mL | 77 ng/mL | significantly decreased the number of nose scratches | 451 pg/mL | 694 pg/mL | 156 ng/mL | significantly decreased the number of coughs | 426 pg/mL
C[C@@H]1C[C@H]2[C@@H]3CCC4=CC(=O)C=C[C@]4(C)[C@@]3(F)[C@@H](O)C[C@]2(C)[C@@]1(O)C(=O)CO [dexamethasone] | 182 pg/mL | 40 ng/mL | – | 216 pg/mL | 415 pg/mL | 154 ng/mL | – | 251 pg/mL
C[C@@H]1CCN(C(=O)CC#N)C[C@@H]1N(C)c1ncnc2[nH]ccc12 [tofacitinib] | 428 pg/mL | 94 ng/mL | significantly decreased the number of nose scratches | 741 pg/mL | 1015 pg/mL | 185 ng/mL | significantly decreased the number of coughs | 598 pg/mL
CN(C)CC/C=C1/c2ccccc2COc2ccc(CC(=O)O)cc21 [olopatadine] | 438 pg/mL | 118 ng/mL | significantly decreased the number of nose scratches | 721 pg/mL | 1054 pg/mL | 218 ng/mL | significantly decreased the number of coughs | 715 pg/mL
